# Legend:
# Assay in all cases: relative viability (nuclei count vs DMSO), 5 days (fraction); higher = more cells survive
# [1] = compound: Cn1nnc2c(C(N)=O)ncn2c1=O [Temozolomide] + CC1(C)CCC(c2ccc(Cl)cc2)=C(CN2CCN(c3ccc(C(=O)NS(=O)(=O)c4ccc(N[C@H](CCN5CCOCC5)CSc5ccccc5)c(S(=O)(=O)C(F)(F)F)c4)cc3)CC2)C1 [Navitoclax] (partner 0.5 µM)
# Procedure, shortened: (§1)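 Relative viability equals treated-well nuclei counts divided by vehicle-well nuclei counts. Counts came from 4× images of lung cancer cell lines grown in 1536-well plates for 5 days after pin-tool dosing on the day after seeding. Dosing used one drug alone or a fixed anchor-drug dose plus five library-drug doses (not always all listed) in √10 steps, and values are medians of duplicate plates.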
# [2] = compound: C[C@@H](C(=O)N[C@@H](C1CCCCC1)C(=O)N2CCC[C@H]2C(=O)N[C@@H]3[C@@H](CC4=CC=CC=C34)OCC#CC#CCO[C@@H]5CC6=CC=CC=C6[C@@H]5NC(=O)[C@@H]7CCCN7C(=O)[C@H](C8CCCCC8)NC(=O)[C@H](C)NC)NC [AZD5582] + C[C@@H](Oc1cc(-c2cnn(C3CCNCC3)c2)cnc1N)c1c(Cl)ccc(F)c1Cl [Crizotinib] (partner 1 µM)
# Procedure, shortened: as §1
# [3] = compound: C[C@@H](C(=O)N[C@@H](C1CCCCC1)C(=O)N2CCC[C@H]2C(=O)N[C@@H]3[C@@H](CC4=CC=CC=C34)OCC#CC#CCO[C@@H]5CC6=CC=CC=C6[C@@H]5NC(=O)[C@@H]7CCCN7C(=O)[C@H](C8CCCCC8)NC(=O)[C@H](C)NC)NC [AZD5582] + CC(C)C[C@H](NC(=O)[C@H](Cc1ccccc1)NC(=O)c1cnccn1)B(O)O [Bortezomib] (partner 0.002 µM)
# Procedure, shortened: as §1
# [4] = compound: C[C@@H](C(=O)N[C@@H](C1CCCCC1)C(=O)N2CCC[C@H]2C(=O)N[C@@H]3[C@@H](CC4=CC=CC=C34)OCC#CC#CCO[C@@H]5CC6=CC=CC=C6[C@@H]5NC(=O)[C@@H]7CCCN7C(=O)[C@H](C8CCCCC8)NC(=O)[C@H](C)NC)NC [AZD5582] + CS(=O)(=O)CCNCc1ccc(-c2ccc3ncnc(Nc4ccc(OCc5cccc(F)c5)c(Cl)c4)c3c2)o1 [Lapatinib] (partner 2 µM)
# Procedure, shortened: as §1
cell line,measurement,setting,value
NCI-H1703,relative viability,[1]; first compound 0.2 µM,1.21
same,relative viability,[1]; first compound 0.6325 µM,1.2
same,relative viability,[1]; first compound 2 µM,1.28
same,relative viability,[1]; first compound 6.325 µM,0.947
same,relative viability,[1]; first compound 20 µM,1.37
same,relative viability,[2]; first compound 0.001581 µM,0.463
same,relative viability,[2]; first compound 0.005 µM,0.428
same,relative viability,[2]; first compound 0.01581 µM,0.59
same,relative viability,[2]; first compound 0.05 µM,0.459
same,relative viability,[3]; first compound 0.001581 µM,0.228
same,relative viability,[3]; first compound 0.005 µM,0.277
same,relative viability,[3]; first compound 0.01581 µM,0.43
same,relative viability,[3]; first compound 0.05 µM,0.2
same,relative viability,[4]; first compound 0.001581 µM,0.815
same,relative viability,[4]; first compound 0.005 µM,0.691
same,relative viability,[4]; first compound 0.01581 µM,1.16
same,relative viability,[4]; first compound 0.05 µM,0.681
